According to ChEMBL document CHEMBL4732046, “A red-light-activated sulfonamide porphycene for highly efficient photodynamic therapy against hypoxic tumor” (Eur J Med Chem, 2021):
Calls of active or inactive are those of the source.

How the values were obtained:
[1] = test system: HeLa; assay: Photocytotoxicity against human HeLa cells assessed as reduction in cell viability irradiated with 640 +/- 15 nm red LED for 4 hrs measured after 24 hrs under hypoxic condition by MTT assay; assay type: functional, cell-based; settings: light or radiation study
[2] = test system: KYSE-70 cell line; assay: Photocytotoxicity against human KYSE-70 cells assessed as reduction in cell viability irradiated with 640 +/- 15 nm red LED for 4 hrs measured after 24 hrs under hypoxic condition by MTT assay; assay type: functional, cell-based; settings: KYSE-70, light or radiation study
[3] = test system: A-375; assay: Photocytotoxicity against human A-375 cells assessed as reduction in cell viability irradiated with 640 +/- 15 nm red LED for 4 hrs measured after 24 hrs under hypoxic condition by MTT assay; assay type: functional, cell-based; settings: A-375, light or radiation study
[4] = test system: B16; assay: Photocytotoxicity against mouse B16 cells assessed as reduction in cell viability irradiated with 640 +/- 15 nm red LED for 4 hrs measured after 24 hrs under hypoxic condition by MTT assay; assay type: functional, cell-based; settings: B16, light or radiation study
[5] = test system: A-375; assay: Antiproliferative activity against human A-375 cells assessed as inhibition of cell proliferation irradiated with 640 +/- 15 nm red LED for 4 hrs in presence of 30 uM D-mannitol measured after 24 hrs by MTT assay; assay type: functional, cell-based
[6] = test system: A-375; assay: Antiproliferative activity against human A-375 cells assessed as inhibition of cell proliferation irradiated with 640 +/- 15 nm red LED for 4 hrs in presence of 30 uM L-histidine measured after 24 hrs by MTT assay; assay type: functional, cell-based
[7] = test system: A-375; assay: Antiproliferative activity against human A-375 cells assessed as inhibition of cell proliferation irradiated with 640 +/- 15 nm red LED for 4 hrs in presence of 30 uM L-histidine measured after 24 hrs under hypoxic condition by MTT assay; assay type: functional, cell-based
[8] = test system: B16; assay: Antiproliferative activity against mouse B16 cells assessed as inhibition of cell proliferation irradiated with 640 +/- 15 nm red LED for 4 hrs in presence of 30 uM L-histidine measured after 24 hrs by MTT assay; assay type: functional, cell-based
[9] = test system: B16; assay: Antiproliferative activity against mouse B16 cells assessed as inhibition of cell proliferation irradiated with 640 +/- 15 nm red LED for 4 hrs in presence of 30 uM D-mannitol measured after 24 hrs under hypoxic condition by MTT assay; assay type: functional, cell-based
[10] = Drug uptake in human A-375 cells upto 2 hrs by flow cytometric analysis; assay type: ADME, cell-based; settings: a-375, 2 h
[11] = test system: B16; assay: Induction of morphological changes in mouse B16 cells assessed as chromatin condensation at 200 to 400 nM incubated for 24 hrs by Hoechst 33258 staining based assay; assay type: functional, cell-based; settings: dose 200-400 nM
[12] = test system: A-375; assay: Induction of apoptosis in human A-375 cells assessed as apoptotic cells at 100 nM irradiated with 640 +/- 15 nm red LED for 1 hrs after 24 hrs by Annexin V-FITC/propidium iodide staining based flow cytometric analysis relative to control; assay type: functional, cell-based
[13] = test system: B16; assay: Induction of apoptosis in mouse B16 cells assessed as apoptotic cells at 400 nM irradiated with 640 +/- 15 nm red LED for 1 hrs after 24 hrs by Annexin V-FITC/propidium iodide staining based flow cytometric analysis relative to control; assay type: functional, cell-based
[14] = test system: B16; assay: Induction of apoptosis in mouse B16 cells assessed as increase in Bad level at 200 to 400 nM irradiated with 640 +/- 15 nm red LED for 1 hrs measured after 24 hrs by Western blot analysis; assay type: functional, cell-based; settings: dose 200-400 nM
[15] = test system: A-375; assay: Induction of apoptosis in human A-375 cells assessed as increase in cleaved caspase 3 level at 100 to 300 nM irradiated with 640 +/- 15 nm red LED for 1 hrs measured after 24 hrs by Western blot analysis; assay type: functional, cell-based; settings: dose 100-300 nM
[16] = test system: A-375; assay: Induction of apoptosis in human A-375 cells assessed as increase in cleaved caspase 9 level at 100 to 300 nM irradiated with 640 +/- 15 nm red LED for 1 hrs measured after 24 hrs by Western blot analysis; assay type: functional, cell-based; settings: dose 100-300 nM
[17] = test system: B16; assay: Induction of apoptosis in mouse B16 cells assessed as increase in cleaved caspase 9 level at 200 to 400 nM irradiated with 640 +/- 15 nm red LED for 1 hrs measured after 24 hrs by Western blot analysis; assay type: functional, cell-based; settings: dose 200-400 nM
[18] = test system: B16; assay: Induction of apoptosis in mouse B16 cells assessed as increase in cytochrome c level at 200 to 400 nM irradiated with 640 +/- 15 nm red LED for 1 hrs measured after 24 hrs by Western blot analysis; assay type: functional, cell-based; settings: dose 200-400 nM
[19] = test system: B16; assay: (§1) Antitumor activity against mouse B16 cells xenografted in C57BL/6J mouse assessed as tumor growth inhibition at high dose intratumorally once every 2 days for 2 weeks followed every dosing irradiated with 640 +/- 15 nm red LED for 4 hrs measured after 14 days treatment; assay type: functional, cell-based; settings: time 14.0 day
[20] = Toxicity in C57BL/6 mouse xenografted with mouse B16 cells assessed as body weight at high dose intratumorally once every 2 days for 2 weeks followed every dosing irradiated with 640 +/- 15 nm red LED for 4 hrs measured after 14 days treatment; settings: in vivo, other, 336 h, time 14 day
[21] = Toxicity in C57BL/6 mouse model assessed as effect on lungs treated intratumorally once every 2 days for 2 weeks followed every dosing irradiated with 640 +/- 15 nm red LED for 4 hrs measured upto 28 days by H and E staining dependent light microscopy based histopathological analysis; settings: in vivo, other, time <=28 day
[22] = Toxicity in C57BL/6 mouse model assessed as effect on liver treated intratumorally once every 2 days for 2 weeks followed every dosing irradiated with 640 +/- 15 nm red LED for 4 hrs measured upto 28 days by H and E staining dependent light microscopy based histopathological analysis; assay type: tissue-based; settings: in vivo, other, time <=28 day
[23] = Toxicity in C57BL/6 mouse model assessed as change in white blood cell count measured after 14 days; assay type: tissue-based; settings: 336 h, time 14 day
[24] = Toxicity in C57BL/6 mouse model assessed as change in platelet count measured after 14 days; settings: 336 h, time 14 day
[25] = Toxicity in C57BL/6 mouse assessed as effect on aspartate aminotransferase level measured after 2 days; settings: in vivo, 48 h, time 2 day
[26] = Toxicity in C57BL/6 mouse assessed as effect on aspartate aminotransferase level measured after 7 days; settings: in vivo, 168 h, time 7 day
[27] = Toxicity in C57BL/6 mouse assessed as effect on alanine aminotransferase level measured after 7 days; settings: in vivo, 168 h, time 7 day
[28] = Toxicity in C57BL/6 mouse assessed as effect on blood urea nitrogen level measured upto 14 days; settings: in vivo, 336 h, time <=14 day
[29] = Toxicity in C57BL/6 mouse assessed as effect on serum creatinine level measured upto 14 days; settings: in vivo, 336 h, time <=14 day
[30] = Toxicity in C57BL/6 mouse assessed as effect on lactate dehydrogenase level measured upto 14 days; settings: in vivo, 336 h, time <=14 day
[31] = Drug uptake in human A-375 cells incubated for 24 hrs in presence of 2-deoxyglucose and sodium azide by mito-tracker green based confocal microscopic method; assay type: ADME, cell-based; settings: a-375, 24 h
[32] = test system: B16; assay: Induction of intracellular reactive oxygen species production in mouse B16 cells assessed as […] membrane damage at 200 nM irradiated with 640 +/- 15 nm red LED for 1 hr measured after 4 hrs by mito-tracker green based confocal microscopic method; assay type: functional, cell-based
[33] = test system: B16; assay: as §1, with “C57BL/6” for “C57BL/6J”, “inhibition by measuring nuclear TUNEL-positive treated” for “inhibition”; assay type: functional, cell-based; settings: time 14.0 day

CC(C)(C)C1=Cc2nc1ccc1[nH]c(cc1S(=O)(=O)NCCOCCO)c1nc(ccc3[nH]c2cc3C(C)(C)C)C(C(C)(C)C)=C1
0.049 µM: DC50 [1]
0.36 µM: DC50 [4]
active: Activity [6] | Activity [7] | Activity [8] | Activity [11] | Activity [12] | Activity [13] | Activity [14] | Activity [15] | Activity [16] | Activity [17] | Activity [18] | Activity [19] | Activity [32] | Activity [33]
Non-Toxic: Activity [20] | Activity [21] | Activity [22] | Activity [23] | Activity [24] | Activity [28] | Activity [29] | Activity [30]
0.051 µM: DC50 [2]
Active: Drug uptake [10]
Not Active: Drug uptake [31]
Toxic: Activity [25] | Activity [26] | Activity [27]
inactive: Activity [5] | Activity [9]
0.324 µM: DC50 [3]
